Consider 40 molecules from patent EP4810040A2, “INHIBITORS OF APOL1 AND METHODS OF USING SAME” (priority 2020, dated 2022).

The IC90 is the concentration at which the effect reaches the 90% level.

SMILES strings stand for the structures. Like-named read-outs stand apart in the source and are kept apart here.

In the experiment the target is T1, APOL1 G1 (Homo sapiens, UniProt O14791, I384M/S342G).
T1 sequence (O14791 28-398 S342G/I384M): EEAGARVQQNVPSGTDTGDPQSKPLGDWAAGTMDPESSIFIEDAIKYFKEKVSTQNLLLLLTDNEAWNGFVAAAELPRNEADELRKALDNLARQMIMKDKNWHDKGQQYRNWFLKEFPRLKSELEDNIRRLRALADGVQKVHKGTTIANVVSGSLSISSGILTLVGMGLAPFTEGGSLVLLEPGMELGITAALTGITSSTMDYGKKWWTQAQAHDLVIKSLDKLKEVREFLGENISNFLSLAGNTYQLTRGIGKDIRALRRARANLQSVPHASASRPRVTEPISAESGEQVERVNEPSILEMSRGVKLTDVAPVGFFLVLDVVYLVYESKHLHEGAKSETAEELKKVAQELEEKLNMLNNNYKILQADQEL
Briefly: MultiTox-Fluor Multiplex Cytotoxicity Assay, tet-inducible APOL1 G1 T-REx-HEK293 cells. The class given is cell-based. On the set-up: expressed in transfected cells; host or cells: T-REx HEK293, clone G1 DC3.25 (pAAVS1-Puro-APOL1 G1). The settings on record: for IC90: read-out: Multi-Tox Assay IC90; for Emax: read-out: Multi-Tox Assay Max Activity (%). Put shortly:
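T-REx-HEK293 cells carrying tet-inducible APOL1 G1 induced with 50 ng/mL tet alongside compound (top 10 µM, 10-point 3-fold, duplicate) for 24 h at 37 °C. MultiTox-Fluor dead/live protease fluorescence ratio read after 30 min; normalized to no-tet (100% viability) and tet-treated (0%) controls, then curve-fitted.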

Setting [1] is: HEK293, Multi-Tox Assay, APOL1 variant (G0/G1/G2) of the HEK293 cells not given.
Setting [2] is: Multi-Tox Assay, APOL1 variant not given.

For `C[C@H]1C[C@@]2(C[C@@H](c3cnn(CC(=O)N(C)C)c3)N1)OCCc1cc(Cl)sc12` [Compound 18, 2-[4-[(2S, 6S)-2-chloro-6'-methyl-spiro[4,5-dihydrothieno[2,3-c]pyran-7,4'-piperidine]-2'-yl]pyrazol-1-yl]-N,N-dimethyl-acetamide], the IC90 under setting [1] was less than 50 nM. Besides, the Emax under setting [2] was 99.5%. With `C[C@H]1C[C@@]2(C[C@@H](c3cn(CCO)nn3)N1)OC[C@@H](O)c1cc(Cl)sc12` [Compound 244], under setting [1], the IC90 is 50 to 500 nM. In addition, the “Multi-Tox Assay Max Activity (%)” value under setting [2] came to 100.0%. Turning to `Cc1ccc(Cn2cc([C@@H]3C[C@]4(C[C@H](C)N3)OC[C@@H](O)c3cc(Cl)sc34)nn2)nc1` [Compound 294], under setting [1], the IC90 fell in the range of 50 to 500 nM. The “Multi-Tox Assay Max Activity (%)” value under setting [2] is 100.0%. In the case of `COc1ccc(Cn2cc([C@@H]3C[C@]4(C[C@H](C)N3)OC[C@@H](O)c3cc(Cl)sc34)nn2)cc1` [Compound 295], under setting [1], the IC90 lay in the range of 50 to 500 nM. `C[C@H]1C[C@@]2(C[C@@H](c3cn(CC4CCC4)nn3)N1)OC[C@@H](O)c1cc(Cl)sc12` [Compound 250]: under setting [1], the IC90 was 50 to 500 nM. Further, the “Multi-Tox Assay Max Activity (%)” value under setting [2] came out at 95.0%.

Take `C[C@H]1C[C@@]2(C[C@@H](c3cn(Cc4ccc(CO)cc4)nn3)N1)OC[C@@H](O)c1cc(Cl)sc12` [Compound 224, (2'S,4S,6'S,7S)-2-chloro-2'-[1-[[4-(hydroxymethyl)phenyl]methyl]triazol-4-yl]-6'-methyl-spiro[4,5-dihydrothieno[2,3-c]pyran-7,4'-piperidine]-4-ol]: the IC90 under setting [1] lay in the range of 50 to 500 nM. For the same molecule, the Emax under setting [2] turned out to be 99%. For the molecule `Cc1c([C@@H]2C[C@]3(C[C@H](C)N2)OCCc2cc(Cl)sc23)cnn1C` (racemic) [Compound 136], the IC90 under setting [1] lay within 50 to 500 nM. Under setting [2], the “Multi-Tox Assay Max Activity (%)” value is 98.7%. `Cc1nc(Cn2cc([C@@H]3C[C@]4(C[C@H](C)N3)OC[C@@H](O)c3cc(Cl)sc34)nn2)oc1C` [Compound 297]: the IC90 under setting [1] lay within 50 to 500 nM. The same measure, in the same setting: the value for `C[C@H]1C[C@@]2(C[C@@H](c3cn(CC4CCOC4)nn3)N1)OCC(F)(F)c1cc(Cl)sc12` (stereo partly shown) [Compound 311] was 50 to 500 nM.

For `C[C@H]1C[C@@]2(C[C@@H](c3ccon3)N1)OCCc1cc(Cl)sc12` (racemic) [Compound 96], the IC90 under setting [1] was less than 50 nM. The Emax under setting [2] is 99.8%. Consider `C[C@H]1C[C@@]2(C[C@@H](c3cn(C)nn3)N1)OC[C@H](O)c1cc(Cl)sc12` [Compound 177, (2'S,4R,6'S,7S)-2-chloro-2'-methyl-6'-(1-methyltriazol-4-yl)spiro[4,5-dihydrothieno[2,3-c]pyran-7,4'-piperidine]-4-ol], for which the IC90 under setting [1] was less than 50 nM. Under setting [2], the Emax was determined as 100%. In the case of `C[C@H]1C[C@@]2(C[C@@H](c3cn(CCC#N)nn3)N1)OC[C@@H](O)c1cc(Cl)sc12` [Compound 286], under setting [1], the IC90 was 50 to 500 nM. The “Multi-Tox Assay Max Activity (%)” value under setting [2] is reported as 98.0%. As for `COCCn1cc([C@@H]2C[C@]3(C[C@H](C)N2)OC[C@@H](O)c2cc(Cl)sc23)nn1` [Compound 282], the IC90 under setting [1] was in the range of 50 to 500 nM. Regarding `CC(C)N1CC(Cn2cc([C@@H]3C[C@]4(C[C@H](C)N3)OC[C@@H](O)c3cc(Cl)sc34)nn2)CC1=O` (stereo partly shown) [Compound 287], the IC90 under setting [1] lay in the range of 50 to 500 nM. Moreover, under setting [2], the “Multi-Tox Assay Max Activity (%)” value stood at 96.0%. As for `COc1ccc([C@@H]2C[C@]3(C[C@H](C)N2)OCCc2cc(Cl)sc23)cc1C#N` (racemic) [Compound 62], the IC90 under setting [1] is less than 50 nM. Under setting [2], the Emax was found to be 99.3%. Regarding `C[C@H]1C[C@@]2(C[C@@H](c3cn(CC(N)=O)nn3)N1)OCCc1cc(Cl)sc12` (racemic) [Compound 133], the IC90 under setting [1] lay in the range of 50 to 500 nM. Also, the “Multi-Tox Assay Max Activity (%)” value under setting [2] was determined as 99.7%.

`COc1cccc(Cn2cc([C@@H]3C[C@]4(C[C@H](C)N3)OCC(F)(F)c3cc(Cl)sc34)nn2)c1` [Compound 319]: the IC90 under setting [1] was in the range of 50 to 500 nM. Also, the “Multi-Tox Assay Max Activity (%)” value under setting [2] is listed as 95.0%. Take `C[C@H]1C[C@@]2(C[C@@H](c3cnn(CC(C)(CO)CO)c3)N1)OCCc1cc(Cl)sc12` (racemic) [Compound 103]: the IC90 under setting [1] is less than 50 nM. The “Multi-Tox Assay Max Activity (%)” value under setting [2] was 99.6%. Regarding `Cn1cc([C@@H]2C[C@]3(C[C@H](C4CC4)N2)OCCc2cc(Cl)sc23)nn1` [Compound 381, (2'R,6'S,7S)-2-chloro-2'-cyclopropyl-6'-(1-methyltriazol-4-yl)spiro[4,5-dihydrothieno[2,3-c]pyran-7,4'-piperidine]], the IC90 (Multi-Tox Assay, APOL1 variant (G0/G1/G2) not stated in Table 46) was less than 50 nM. For the same molecule, under “Multi-Tox Assay, APOL1 variant not stated in Table 46”, the Emax amounted to 100%. In the case of `COCC(O)Cn1cc([C@@H]2C[C@]3(C[C@H](C)N2)OC[C@@H](O)c2cc(Cl)sc23)nn1` (stereo partly shown) [Compound 226], the IC90 under setting [1] is 50 to 500 nM. Also, the “Multi-Tox Assay Max Activity (%)” value under setting [2] is 100.0%. As for `CC1CC2(CC(c3cc(F)cc(C#N)c3)N1)OCCc1cc(Cl)sc12` (stereo not shown) [Compound 33], the IC90 under setting [1] is less than 50 nM. For the same molecule, the “Multi-Tox Assay Max Activity (%)” value under setting [2] was 98.7%. Take `Cc1ncc([C@@H]2C[C@]3(C[C@H](C)N2)OCCc2cc(Cl)sc23)cn1` (racemic) [Compound 82]: the IC90 under setting [1] is less than 50 nM. Moreover, under setting [2], the Emax was determined as 99.7%.

On to `Cc1ccc([C@@H]2C[C@]3(C[C@H](C)N2)OCCc2cc(Cl)sc23)cn1` (racemic) [Compound 55], for which the IC90 under setting [1] was less than 50 nM. Besides, the “Multi-Tox Assay Max Activity (%)” value under setting [2] worked out at 99.7%. On the same counts, the results for `C[C@H]1C[C@@]2(C[C@@H](c3cnn4c3OCCC4)N1)OCCc1cc(Cl)sc12` (racemic) [Compound 163] are more than 500 nM and 92.7%. In the same order, the values of `Cc1noc2cc([C@@H]3C[C@]4(C[C@H](C)N3)OCCc3cc(Cl)sc34)ccc12` (racemic) [Compound 25] are less than 50 nM and 100.0%. As to `Cc1cc([C@@H]2C[C@]3(C[C@H](C)N2)OCCc2cc(Cl)sc23)ccc1O` (racemic) [Compound 108], under setting [1], the IC90 is 50 to 500 nM. Turning to `Cc1nn(C)c2ncc(C3CC4(CC(C)N3)OCCc3cc(Cl)sc34)cc12` (stereo not shown) [Compound 42], the IC90 under setting [1] was less than 50 nM. For the same molecule, under setting [2], the “Multi-Tox Assay Max Activity (%)” value was determined as 99.7%. For `C[C@H]1C[C@@]2(C[C@@H](c3cn(CCC4CCCOC4)nn3)N1)OCC(F)(F)c1cc(Cl)sc12` (stereo partly shown) [Compound 314], under setting [1], the IC90 is less than 50 nM. As for `CC(CO)CCn1cc([C@@H]2C[C@]3(C[C@H](C)N2)OC[C@@H](O)c2cc(Cl)sc23)nn1` (stereo partly shown) [Compound 264], the IC90 under setting [1] was 50 to 500 nM. In addition, the “Multi-Tox Assay Max Activity (%)” value under setting [2] is given as 100.0%.

Turning to `C[C@@H]1CC2(C[C@H](C)N1)OCCc1cc(Cl)sc12` (single isomer, unassigned) [Compound 204], the IC90 under setting [1] was in the range of 50 to 500 nM. In addition, the Emax under setting [2] was determined as 99%. On to `C[C@H]1C[C@@]2(C[C@@H](c3ccnn3C)N1)OCCc1cc(Cl)sc12` (racemic) [Compound 152], for which, under setting [1], the IC90 was more than 500 nM. Moreover, under setting [2], the “Multi-Tox Assay Max Activity (%)” value came out at 98.0%. On to `C[C@H]1C[C@@]2(C[C@@H](c3cn(C)nn3)N1)OC[C@@H](O)c1cc(Cl)sc12` [Compound 174, (2'S, 4S, 6'S, 7S)-2-chloro-2'-methyl-6'-(1-methyltriazol-4-yl)spiro[4,5-dihydrothieno[2,3-c]pyran-7,4'-piperidine]-4-ol], for which the IC90 under setting [1] is less than 50 nM. Besides, the Emax under setting [2] was 99.8%. As for `Cc1nnc(Cn2cc([C@@H]3C[C@]4(C[C@H](C)N3)OC[C@@H](O)c3cc(Cl)sc34)nn2)[nH]1` [Compound 272], the IC90 under setting [1] is more than 500 nM. For the same molecule, under setting [2], the “Multi-Tox Assay Max Activity (%)” value was determined as 95.0%. For the molecule `C[C@H]1C[C@@]2(C[C@@H](c3cn(CC4(CO)CCOCC4)nn3)N1)OC[C@@H](O)c1cc(Cl)sc12` [Compound 240], the IC90 under setting [1] was more than 500 nM. For the same molecule, under setting [2], the “Multi-Tox Assay Max Activity (%)” value was 95.0%. Consider `C[C@H]1C[C@@]2(C[C@@H](c3cn(CC4CCOC4)nn3)N1)OC[C@@H](O)c1cc(Cl)sc12` (stereo partly shown) [Compound 269], for which, under setting [1], the IC90 lay in the range of 50 to 500 nM. As to `Cn1cc(C2CC3(CC(C4CCC4)N2)OCCc2cc(C(F)(F)F)sc23)nn1` (stereo not shown) [Compound 192], under setting [1], the IC90 lay within 50 to 500 nM. For the same molecule, the Emax under setting [2] stood at 99%. Consider `C[C@H]1C[C@@]2(C[C@@H](c3cn(CCC4CCCOC4)nn3)N1)OC[C@@H](O)c1cc(Cl)sc12` (stereo partly shown) [Compound 273], for which the IC90 under setting [1] was 50 to 500 nM. In addition, the “Multi-Tox Assay Max Activity (%)” value under setting [2] came out at 101.0%. For `Cc1nc([C@@H]2C[C@]3(C[C@H](C)N2)OCCc2cc(Cl)sc23)co1` (racemic) [Compound 104], under setting [1], the IC90 fell in the range of 50 to 500 nM. In addition, the “Multi-Tox Assay Max Activity (%)” value under setting [2] is 99.3%. On the same counts, the results for `CC(C)c1c[nH]c([C@@H]2C[C@]3(C[C@H](C)N2)OCCc2cc(Cl)sc23)n1` (racemic) [Compound 162] are more than 500 nM and 92.0%. For `C[C@H]1C[C@@]2(C[C@@H](c3cnc4c(cnn4C)c3)N1)OCCc1cc(Cl)sc12` (racemic) [Compound 26], under setting [1], the IC90 was less than 50 nM. Also, under setting [2], the “Multi-Tox Assay Max Activity (%)” value is on record as 100.0%.
